From US20250152574A1 (BIOGEN MA INC., priority 2022, published 2025)

Target: T1, EBP (Homo sapiens, UniProt Q15125)
T1 construct: HEK293T cells were utilized as the source of EBP enzyme; endogenous in cells; host or cells: HEK293T
Assay: EBP Functional Assay (EBP immunoaffinity LC-MS assay)
Format: biochemical
Conditions: HEK293T cells as source of EBP enzyme; substrate zymosterol-d5, 37° C. for 4 h; percent conversion to dehydrolathosterol-d5 by LC-APCI MRM MS
Description: The EBP immunoaffinity (IA) LC-MS assay measures the potency of small molecule inhibitors of EBP by quantifying their concentration-dependent changes in the enzyme's substrate and product using liquid chromatography atmospheric pressure chemical ionization multiple reaction monitoring mass spectrometry (LC-APCI MRM MS). HEK293T cells were utilized as the source of EBP enzyme. The enzyme was incubated with the small molecule inhibitors at variable concentrations for 30 min. Deuterated form of EBP substrate, zymosterol-d5 (Avanti Polar Lipids, Cat #700068P-1 mg), was then added and the plate was incubated at 37° C. for 4 h. Finally, the sterol isomers were extracted and injected to LC-APCI MRM MS. MRM transition used for the quantification for both zymosterol and […] (substrate and product of EBP enzymatic reaction, respectively) is 372.3-203.2, CE 30 and DP 80 in positive ion mode. Percent conversion of the zymosterol-d5 to dehydrolathosterol-d5 was used to derive IC50 curves. Tasin-1 (1′-[(4-Methoxyphenyl)sulfonyl]-4-methyl-1,4′-bipiperidine, CAS 792927-06-1) was used as the reference small molecule inhibitor.
Percent conversion versus the compound concentration data were fit to the following 4-parameter logistic model to generate IC50 curves: […]

T1 sequence (Q15125 whole entry): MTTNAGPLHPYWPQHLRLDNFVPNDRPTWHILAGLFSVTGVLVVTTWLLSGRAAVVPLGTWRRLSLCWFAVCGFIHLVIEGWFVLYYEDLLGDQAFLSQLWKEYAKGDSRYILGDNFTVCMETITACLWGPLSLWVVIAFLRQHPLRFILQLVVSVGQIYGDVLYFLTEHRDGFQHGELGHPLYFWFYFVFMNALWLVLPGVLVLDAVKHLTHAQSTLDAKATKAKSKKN

Row | SMILES | IC50
1 | O=S(=O)(c1ccc(OC2CC2)cn1)N1CCC2(CCC(N3CCOCC3)C2)CC1 (stereo not shown) [Example 32, 4-(8-((5-Cyclopropoxypyridin-2-yl)sulfonyl)-8-azaspiro[4.5]decan-2-yl)morpholine] | 250 to 1500 nM
2 | Cn1nc(C(F)(F)F)cc1S(=O)(=O)N1CCC2(CC1)CC(NC1CC3(COC3)C1)CO2 (stereo not shown) [Example 139, 8-((1-methyl-3-(trifluoromethyl)-1H-pyrazol-5-yl)sulfonyl)-N-(2-oxaspiro[3.3]heptan-6-yl)-1-oxa-8-azaspiro[4.5]decan-3-amine] | 100 to 250 nM
3 | Cc1cc(F)c(S(=O)(=O)N2CCC3(CC2)CC(N2CCOCC2)CO3)c(F)c1 (stereo not shown) [Example 16] | 250 to 1500 nM
4 | CCOc1ccc(S(=O)(=O)N2CCC3(CCC(N4CC5(COC5)C4)C3)CC2)cc1 (stereo not shown) [Example 108] | 250 to 1500 nM
5 | Cc1cc(S(=O)(=O)N2CCC3(CC2)CC(N2CCC4(CCOC4)C2)CO3)n(C)n1 (stereo not shown) [Example 29, 8-((1,3-Dimethyl-1H-pyrazol-5-yl)sulfonyl)-3-(2-oxa-7-azaspiro[4.4]nonan-7-yl)-1-oxa-8-azaspiro[4.5]decane] | 250 to 1500 nM
6 | Cc1occc1S(=O)(=O)N1CCC2(CCC(N3CC4(COC4)C3)C2)CC1 (stereo not shown) [Example 105] | 250 to 1500 nM
7 | O=S(=O)(c1ccc2ccoc2c1)N1CCC2(CCC(N3CC4(COC4)C3)C2)CC1 (stereo not shown) [Example 135, 6-(8-(benzofuran-6-ylsulfonyl)-8-azaspiro[4.5]decan-2-yl)-2-oxa-6-azaspiro[3.3]heptane] | 100 to 250 nM
8 | Cc1cc(S(=O)(=O)N2CCC3(CC2)C[C@H](N2CC[C@@]4(CCOC4)C2)CO3)n(C)n1 (single isomer, unassigned) [Example 72a] | 100 to 250 nM
9 | Cc1cc(S(=O)(=O)N2CCC3(CC[C@@H](N4CCOCC4)C3)CC2)n(C)n1 (single isomer, unassigned) [Example 22a] | 250 to 1500 nM
10 | O=S(=O)(c1cc(F)cc(F)c1)N1CCC2(CC1)C[C@@H](N1CC3(COC3)C1)CO2 (single isomer, unassigned) [Example 119b] | 100 to 250 nM
11 | Cc1cc(S(=O)(=O)N2CCC3(CC[C@H](N4CC5(COC5)C4)C3)CC2)n(C)n1 (single isomer, unassigned) [Example 68b] | 100 to 250 nM
12 | O=S(=O)(c1ccc(OC(F)F)cc1)N1CCC2(CC1)CC(N1CC3(CCOC3)C1)CO2 (stereo not shown) [Example 69, 8-((4-(Difluoromethoxy)phenyl)sulfonyl)-3-(6-oxa-2-azaspiro[3.4]octan-2-yl)-1-oxa-8-azaspiro[4.5]decane] | 250 to 1500 nM
13 | O=S(=O)(c1cc2cccnc2cc1F)N1CCC2(CCC(N3CC4(COC4)C3)C2)CC1 (stereo not shown) [Example 102, 6-(8-((7-fluoroquinolin-6-yl)sulfonyl)-8-azaspiro[4.5]decan-2-yl)-2-oxa-6-azaspiro[3.3]heptane] | 100 to 250 nM
14 | COc1ccc(S(=O)(=O)N2CCC3(CC2)CC(N2CCOCC2)CO3)c(C)n1 (stereo not shown) [Example 20, 8-((6-Methoxy-2-methylpyridin-3-yl)sulfonyl)-3-morpholino-1-oxa-8-azaspiro[4.5]decane] | 250 to 1500 nM
15 | O=S(=O)(c1ccc(OC(F)F)cc1)N1CCC2(CC[C@@H](N3C[C@@H]4C[C@H]3CO4)C2)CC1 (single isomer, unassigned) [Example 90a] | 100 to 250 nM
16 | Cc1nc(C(F)(F)F)ccc1S(=O)(=O)N1CCC2(CC1)CC(NC1CC3(COC3)C1)CO2 (stereo not shown) [Example 137, 8-((2-methyl-6-(trifluoromethyl)pyridin-3-yl)sulfonyl)-N-(2-oxaspiro[3.3]heptan-6-yl)-1-oxa-8-azaspiro[4.5]decan-3-amine] | 250 to 1500 nM
17 | N#Cc1cc(F)cc(S(=O)(=O)N2CCC3(CC[C@@H](N4CC5(COC5)C4)C3)CC2)c1 (single isomer, unassigned) [Example 85a] | 100 to 250 nM
18 | Cc1cc(S(=O)(=O)N2CCC3(CCC(N4CC5(COC5)C4)C3)CC2)cnc1C (stereo not shown) [Example 109] | 100 to 250 nM
19 | Cc1ccc(C#N)cc1S(=O)(=O)N1CCC2(CC1)C[C@H](N1CCOCC1)CO2 (single isomer, unassigned) [Example 15b] | 250 to 1500 nM
20 | Cc1cc(S(=O)(=O)N2CCC3(CCC(N4CCOCC4)C3)CC2)n(C)n1 (stereo not shown) [Example 21, 4-(8-((1,3-Dimethyl-1H-pyrazol-5-yl)sulfonyl)-8-azaspiro[4.5]decan-2-yl)morpholine] | 100 to 250 nM
21 | O=S(=O)(c1ccc(OC(F)F)cc1)N1CCC2(CC1)CC(N1CCC3(CCOC3)C1)CO2 (stereo not shown) [Example 70, 8-((4-(Difluoromethoxy)phenyl)sulfonyl)-3-(2-oxa-7-azaspiro[4.4]nonan-7-yl)-1-oxa-8-azaspiro[4.5]decane] | 250 to 1500 nM

Further lines, results first:

Row | IC50 | SMILES
22 | 100 to 250 nM | Cc1ccc(F)c(S(=O)(=O)N2CCC3(CC2)CC(N2CCOCC2)CO3)c1 (stereo not shown) [Example 18, 8-((2-Fluoro-5-methylphenyl)sulfonyl)-3-morpholino-1-oxa-8-azaspiro[4.5]decane]
23 | 100 to 250 nM | O=S(=O)(c1ccc(OC(F)F)cc1)N1CCC2(CCC(N3CCOCC3)C2)CC1 (stereo not shown) [Example 23, 4-(8-((4-(Difluoromethoxy)phenyl)sulfonyl)-8-azaspiro[4.5]decan-2-yl)morpholine]
24 | < 100 nM | O=S(=O)(c1cc(C(F)F)nn1C1CC1)N1CCC2(CC1)CC(N1CC3(COC3)C1)C2 [Example 123, 6-(7-((1-cyclopropyl-3-(difluoromethyl)-1H-pyrazol-5-yl)sulfonyl)-7-azaspiro[3.5]nonan-2-yl)-2-oxa-6-azaspiro[3.3]heptane]
25 | < 100 nM | Cc1nc(C(F)(F)F)ncc1S(=O)(=O)N1CCC2(CC1)CC(N(C)C1CC3(COC3)C1)CO2 (stereo not shown) [Example 140, N-methyl-8-((4-methyl-2-(trifluoromethyl)pyrimidin-5-yl)sulfonyl)-N-(2-oxaspiro[3.3]heptan-6-yl)-1-oxa-8-azaspiro[4.5]decan-3-amine]
26 | < 100 nM | N#Cc1cccc(S(=O)(=O)N2CCC3(CCC(N4CC5(COC5)C4)C3)CC2)c1F (stereo not shown) [Example 104]
27 | < 100 nM | COc1cc(S(=O)(=O)N2CCC3(CCC(N4CC5(COC5)C4)C3)CC2)c(F)cn1 (stereo not shown) [Example 113]
28 | < 100 nM | COc1cc(S(=O)(=O)N2CCC3(CCC(N4CC5(COC5)C4)C3)CC2)ccn1 (stereo not shown) [Example 112]
29 | < 100 nM | COc1ncc(S(=O)(=O)N2CCC3(CCC(N4CC5(COC5)C4)C3)CC2)cc1Cl (stereo not shown) [Example 106]
30 | < 100 nM | Cc1ccc(S(=O)(=O)N2CCC3(CCC(N4CC5(COC5)C4)C3)CC2)cc1C#N (stereo not shown) [Example 128, 5-((2-(2-oxa-6-azaspiro[3.3]heptan-6-yl)-8-azaspiro[4.5]decan-8-yl)sulfonyl)-2-methylbenzonitrile]
31 | < 100 nM | O=S(=O)(c1cnc2cccc(F)c2c1)N1CCC2(CCC(N3CC4(COC4)C3)C2)CC1 (stereo not shown) [Example 132, 6-(8-((5-fluoroquinolin-3-yl)sulfonyl)-8-azaspiro[4.5]decan-2-yl)-2-oxa-6-azaspiro[3.3]heptane]
32 | < 100 nM | O=S(=O)(c1cnc2ccccc2c1)N1CCC2(CCC(N3CC4(COC4)C3)C2)CC1 (stereo not shown) [Example 103]
33 | < 100 nM | Cn1nc(C(F)F)cc1S(=O)(=O)N1CCC2(CC1)CC(N1CC3(COC3)C1)C2 [Example 122, 6-(7-((3-(difluoromethyl)-1-methyl-1H-pyrazol-5-yl)sulfonyl)-7-azaspiro[3.5]nonan-2-yl)-2-oxa-6-azaspiro[3.3]heptane]
34 | < 100 nM | O=S(=O)(c1ccc(OC(F)F)cc1)N1CCC2(CC[C@@H](N3C[C@H]4C[C@@H]3CO4)C2)CC1 (single isomer, unassigned) [Example 86a]
